Each structure is given as a SMILES string.

For the first experiment, the target named is PI3KC2α Δ1-298 (Homo sapiens (Human), UniProt O00443). Description: ADP-Glo kinase assay with purified PI3KC2α Δ1-298. It counts as biochemical.
PI3KC2α Δ1-298, sequence (O00443 299-1686): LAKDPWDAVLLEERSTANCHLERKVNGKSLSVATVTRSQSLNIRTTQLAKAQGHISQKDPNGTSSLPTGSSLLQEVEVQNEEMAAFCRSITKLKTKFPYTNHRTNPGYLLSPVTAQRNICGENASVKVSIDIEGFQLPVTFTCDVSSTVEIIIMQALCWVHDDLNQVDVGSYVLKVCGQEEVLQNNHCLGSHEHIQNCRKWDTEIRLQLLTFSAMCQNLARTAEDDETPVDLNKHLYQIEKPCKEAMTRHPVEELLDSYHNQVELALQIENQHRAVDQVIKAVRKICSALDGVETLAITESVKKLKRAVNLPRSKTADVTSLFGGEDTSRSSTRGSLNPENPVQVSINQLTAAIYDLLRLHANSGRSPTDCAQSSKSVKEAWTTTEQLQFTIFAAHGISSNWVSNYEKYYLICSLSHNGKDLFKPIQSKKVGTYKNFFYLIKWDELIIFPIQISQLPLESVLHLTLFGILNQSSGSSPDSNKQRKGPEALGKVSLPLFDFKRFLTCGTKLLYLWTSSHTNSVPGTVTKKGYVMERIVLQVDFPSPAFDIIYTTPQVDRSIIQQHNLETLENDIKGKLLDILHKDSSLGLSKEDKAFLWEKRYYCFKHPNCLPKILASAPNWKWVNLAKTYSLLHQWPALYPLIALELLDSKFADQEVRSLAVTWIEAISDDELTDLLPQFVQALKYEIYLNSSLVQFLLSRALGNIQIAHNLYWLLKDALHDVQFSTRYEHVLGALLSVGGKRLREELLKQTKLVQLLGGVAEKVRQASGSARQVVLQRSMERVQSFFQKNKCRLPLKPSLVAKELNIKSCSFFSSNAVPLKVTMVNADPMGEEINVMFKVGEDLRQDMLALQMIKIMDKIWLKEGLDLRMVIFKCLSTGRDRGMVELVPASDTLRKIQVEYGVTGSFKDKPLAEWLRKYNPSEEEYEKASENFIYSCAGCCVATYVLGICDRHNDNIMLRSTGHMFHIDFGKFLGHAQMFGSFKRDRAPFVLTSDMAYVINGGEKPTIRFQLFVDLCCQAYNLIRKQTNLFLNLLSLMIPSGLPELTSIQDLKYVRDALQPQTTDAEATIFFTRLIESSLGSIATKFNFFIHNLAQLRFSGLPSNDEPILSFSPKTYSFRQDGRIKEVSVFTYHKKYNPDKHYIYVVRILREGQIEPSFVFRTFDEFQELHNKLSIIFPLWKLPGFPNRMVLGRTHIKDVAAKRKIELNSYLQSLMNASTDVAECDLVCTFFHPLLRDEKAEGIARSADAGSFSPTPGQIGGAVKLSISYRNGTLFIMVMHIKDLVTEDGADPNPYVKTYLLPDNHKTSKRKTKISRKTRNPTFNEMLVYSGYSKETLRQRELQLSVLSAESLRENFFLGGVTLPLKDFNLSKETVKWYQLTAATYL
Conditions: not given
As to the method: Previous studies have shown that PI3KC2α can utilize phosphatidylinositol (PI) or phosphatidylinositol 4-phosphate [PI(4)P] to produce PI(3)P or PI(3,4)P2 respectively but with a preference for PI(3,4)P2 production. To verify that purified PI3KC2α Δ1-298 is active, a radioactive kinase assay was performed with PI as a substrate and different amounts of purified PI3KC2α Δ1-298. The lipid product [PI(3)P] was separated on TLC plates, and the PI(3)P signal was correlated with the amount of PI3KC2α used (FIG. 4A). […] After having confirmed the activity of purified PI3KC2α Δ1-298, an assay suitable for high content screens in multiwell format (ADP-Glo™ assay) was established. The ADP-Glo™ assay has been used for universal detection of ATP hydrolysis. This assay measures ATP hydrolysis occurring during a kinase reaction. For detection, generated ADP is re-converted into ATP with the […] and converted into light by the Ultra-Glo™ Luciferase reagent. The luminescent signal reports kinase activity (FIG. 4B).
The ADP-Glo™ assay was first used to determine the linear correlation range of signal with different amounts of kinase, and then to assess the Kms for ATP and for PI. […] Further optimization of this assay allowed us to carry out medium-to-high throughput screening using low amounts of purified enzyme (at fixed concentrations of: ATP=40 μM, PI=200 μM, PI3KC2α A1−298=10 ng/μl).
Primary screens were performed using the ADP-Glo™ assay in a 384-well format. 37, 224 small molecules were screened for their ability to inhibit kinase activity of PI3KC2α Δ1-298. The concentration of each compound used in the primary screens was 10 μM. Kinase incubations with ATP but without PI were used as negative control samples. This primary screen turned out to be robust with an average z′ factor of 0.57, and therefore judged as successful.
ADP-Glo kinase assay was performed as described by the manufacturer's protocol. Briefly, the kinase assay was performed with a […] of liver PI/ATP/purified PI3KC2α for 20 min in kinase reaction buffer described above. To deplete the remaining ATP from the reaction, 5 μl of […] was added to the kinase reaction mixture and incubated for 40 min. For detection, the generated ADP is re-converted into ATP and converted into light by the Ultra-Glo™ luciferase in kinase detection reagent. The luminescent signal positively correlates with kinase activity. All reactions are performed in Corning® 384 well-white plates.
In general terms: ADP-Glo first removes unused ATP, then detects ADP through luciferase.
For `O=C(CSc1nc2nccnc2c(=O)n1CCc1cccc(F)c1)Nc1nc(-c2ccc(F)cc2)cs1` [Example Compound 6, 2-((3-(3-Fluorophenethyl)-4-oxo-3,4-dihydropteridin-2-yl)thio)-N-(4-(4-fluorophenyl)thiazol-2-yl)acetamide], the “PI3KC2α inhibitory activity (in words, SAR)” value is on record as “functional compounds”.

For the compound `O=C(CSc1nc2nccnc2c(=O)n1CCc1ccccc1)Nc1nc(-c2ccccc2)cs1` [Example Compound 10, 2-((4-Oxo-3-phenethyl-3,4-dihydropteridin-2-yl)thio)-N-(4-phenylthiazol-2-yl)acetamide], the “PI3KC2α inhibitory activity (in words, SAR)” value was “functional compounds”.

The same experiment, now with this note: read-out: IC50 (PI3KC2α; ADP-Glo™ assay).
One may read the IC50 as the concentration that gives 50% inhibition. For the compound `O=c1c2nccnc2nc(SCc2nc3ccccc3[nH]2)n1[C@@H]1C[C@H]1c1ccccc1` (relative stereo) [Example Compound 99, trans-2-(((1H-Benzo[d]imidazol-2-yl)methyl)thio)-3-(2-phenylcyclopropyl)pteridin-4(3H)-one], the IC50 was 1.8 µM.

Regarding `O=C(CSc1nc2nccnc2c(=O)n1CCc1ccccc1)Nc1nc(-c2cccc(O)c2)cs1` [Example Compound 1, N-(4-(3-Hydroxyphenyl)thiazol-2-yl)-2-((4-oxo-3-phenethyl-3,4-dihydropteridin-2-yl)thio)acetamide], the half-inhibitory concentration (IC50) is 0.12 µM.

As to `CS(=O)(=O)Nc1ccc(-c2csc(NC(=O)CSc3nc4nccnc4c(=O)n3CCc3ccccc3)n2)cc1` [Example Compound 2, N-(4-(4-(Methylsulfonamido)phenyl)thiazol-2-yl)-2-((4-oxo-3-phenethyl-3,4-dihydropteridin-2-yl)thio)acetamide], the concentration for half-maximal inhibition (IC50) is 1.7 µM.

With `O=C(CSc1nc2nccnc2c(=O)n1CCc1cccc(F)c1)Nc1ncco1` [Example Compound 3, 2-((3-(3-Fluorophenethyl)-4-oxo-3,4-dihydropteridin-2-yl)thio)-N-(oxazol-2-yl)acetamide], the concentration for half-maximal inhibition (IC50) turned out to be 2.1 µM.

For `O=C(CSc1nc2nccnc2c(=O)n1CCc1cccc(F)c1)Nc1nccs1` [Example Compound 4, 2-((3-(3-Fluorophenethyl)-4-oxo-3,4-dihydropteridin-2-yl)thio)-N-(thiazol-2-yl)acetamide], the half-maximal inhibitory concentration (IC50) was 0.84 µM.

As for `Cc1nnc(NC(=O)CSc2nc3nccnc3c(=O)n2CCc2cccc(F)c2)s1` [Example Compound 5, 2-((3-(3-Fluorophenethyl)-4-oxo-3,4-dihydropteridin-2-yl)thio)-N-(5-methyl-1,3,4-thiadiazol-2-yl)acetamide], the IC50 is 6.3 µM.

As for `O=C(CSc1nc2nccnc2c(=O)n1CCc1cccc(F)c1)Nc1nc(-c2ccc(F)cc2)cs1` [Example Compound 6, 2-((3-(3-Fluorophenethyl)-4-oxo-3,4-dihydropteridin-2-yl)thio)-N-(4-(4-fluorophenyl)thiazol-2-yl)acetamide], the IC50 worked out at 0.61 µM.

For the compound `O=C(CSc1nc2nccnc2c(=O)n1CCc1cccc(F)c1)NC1CC1` [Example Compound 7, N-Cyclopropyl-2-((3-(3-fluorophenethyl)-4-oxo-3,4-dihydropteridin-2-yl)thio)acetamide], the half-inhibitory concentration (IC50) came to 7.1 µM.

Regarding `O=C(CSc1nc2nccnc2c(=O)n1CCc1cccs1)Nc1nccs1` [Example Compound 8, 2-((4-Oxo-3-(2-(thiophen-2-yl)ethyl)-3,4-dihydropteridin-2-yl)thio)-N-(thiazol-2-yl)acetamide], the IC50 was 1.1 µM.

For the compound `O=C(CSc1nc2nccnc2c(=O)n1CCc1cccc(C(F)(F)F)c1)Nc1nccs1` [Example Compound 9, 2-((4-Oxo-3-(3-(trifluoromethyl)phenethyl)-3,4-dihydropteridin-2-yl)thio)-N-(thiazol-2-yl)acetamide], the 50% inhibitory concentration (IC50) stood at 1.5 µM.

For the compound `O=C(CSc1nc2nccnc2c(=O)n1CCc1ccccc1)Nc1nc(-c2ccccc2)cs1` [Example Compound 10, 2-((4-Oxo-3-phenethyl-3,4-dihydropteridin-2-yl)thio)-N-(4-phenylthiazol-2-yl)acetamide], the IC50 is 1.26 µM.

Take `CS(=O)(=O)Nc1cccc(-c2csc(NC(=O)CSc3nc4nccnc4c(=O)n3CCc3ccccc3)n2)c1` [Example Compound 12, N-(4-(3-(Methylsulfonamido)phenyl)thiazol-2-yl)-2-((4-oxo-3-phenethyl-3,4-dihydropteridin-2-yl)thio)acetamide]: the half-inhibitory concentration (IC50) amounted to 0.13 µM.

Turning to `O=C(CSc1nc2cccnc2c(=O)n1CCc1ccccc1)Nc1nccs1` [Example Compound 13, 2-((4-Oxo-3-phenethyl-3,4-dihydropyrido[3,2-d]pyrimidin-2-yl)thio)-N-(thiazol-2-yl)acetamide], the 50% inhibitory concentration (IC50) worked out at 13 µM.

The record behind these values is patent US12247029B2, “Heterocyclic compounds as class II phosphoinositide 3-kinase inhibitors” (Forschungsverbund Berlin e.V., priority 2018, dated 2025).
